# Measurements from patent EP3386957B1, “PROCESS FOR THE PURIFICATION OF 10-DEACETYL BACCATIN III” (RotaChrom Technológiai és Szolgálató Zártkörüen Müködö …, priority 2015, dated 2017).
# Assay: Selectivity of CPC solvent systems for contaminants of 10-DAB III (contaminants identified by HPLC relative retention time)
# Assay type: physicochemical
# Conditions: CPC solvent mixture MTBE/acetone/water; Table 3
# Description: The HPLC methods used for the analysis: • 1. Isocratic method • Column: Dr Maisch ReproSil-Pur C18-AQ (150x4.0 mm, 3 um) • Column thermostat: 35 °C • Flow rate: 0.75 ml/min • Eluent: 28% acetonitrile, 72% water, 0.1% acetic acid • Detection wavelength: 230 +/- 5 nm • Injected volume: 10 ul • 2. Gradient method • Colum: Phenomenex Kinetex C18 (100x3.0 mm, 2.6 um) • Column thermostat: 35 °C • Flow rate: 0.7 ml/min • Eluent A: water + 0.1% acetic acid Eluent B: acetonitrile Gradient program: 0 min 20% B, 5 min: 30% B, 11 min 40% B, 13 min 40% B, 14 min 20% B, 18 min 20% B • Detection wavelength: 230 +/- 5 nm • Injected volume: 5 ul
# Table 3: the selectivity matrix of the individual methods according to the invention
structure (smiles),measurement,value
"CC(=O)O[C@@]12CO[C@@H]1C[C@H](O)[C@@]1(CO)C(=O)[C@H](O)C3=C(C)[C@@H](O)C[C@@](O)([C@@H](OC(=O)c4ccccc4)[C@H]21)C3(C)C [RRT=0.48, 19-OH-10-deacetylbaccatin III]",selectivity,+++ (high selectivity)
